Laboratory results taken from ChEMBL document CHEMBL1131874, “Synthesis and apoptogenic activity of fluorinated ceramide and dihydroceramide analogues” (1999).

Columns and labels:
[1] = Apoptogenic activity against Molt cells after 24 hr treatment at concentration 30 uM; format: functional, cell-based; details: Homo sapiens
[2] = organism: Homo sapiens; test: Apoptogenic activity against peripheral blood lymphocytes after 24 hr treatment at concentration 30 uM; format: functional
[3] = Apoptogenic activity against K-422 cells after 24 hr treatment at concentration 30 uM; format: functional, cell-based; details: Homo sapiens
[4] = Aoptogenic activity against Molt cells after 24 hr treatment at concentration 30 uM; format: functional, cell-based; details: Homo sapiens

CCCCCCCCC[C@H](F)[C@H](CO)NC(=O)CCCCC
Cells [1]: 31.6%
Cells [2]: 46%
Cells [3]: 32%

CCCCCCC/C=C/[C@@H](F)[C@H](CO)NC(=O)CCCCC
Cells [1]: 11%
Cells [2]: 40%
Cells [3]: 34.7%

CCCCCCC/C=C/[C@@H](O)[C@H](CO)NC(=O)CCCCC
Cells [1]: 3.5%
Cells [2]: 12%
Cells [3]: 12.7%

CCCCCCCCCCCCC/C=C/[C@@H](O)[C@H](CO)NC(C)=O
Cells [1]: 51%
Cells [2]: 48.8%
Cells [3]: 27.7%

CCCCCCC/C=C/[C@H](F)[C@H](CO)NC(=O)CCCCC
Cells [1]: 13.7%
Cells [2]: 47.7%
Cells [3]: 51.2%

CCCCCC(=O)N[C@@H](CO)[C@@H](F)CCc1ccccc1
Cells [1]: 2%
Cells [2]: 0.5%
Cells [3]: 2.5%

CCCCCCCCC[C@H](O)[C@H](CO)NC(=O)CCCCC
Cells [1]: 9%
Cells [2]: 57%
Cells [3]: 15%

CCCCCCC/C=C/[C@H](O)[C@H](CO)NC(=O)CCCCC
Cells [1]: 1%
Cells [2]: 33.5%
Cells [3]: 32.7%

CCCCCCCCC[C@H](F)[C@H](CO)NC(C)=O
Cells [4]: 3%
Cells [2]: 3%
Cells [3]: 7.3%
